Test results from patent US7148245B2, “Biphenyl derivatives substituted with an aromatic or heteroaromatic radical, and pharmaceutical and cosmetic compositions containing them” (Galderma Research & Development, priority 1997, dated 2006).

melting point	Structure (SMILES)
183 to 185 °C	COCOc1ccc(-c2ccc3c(c2)C(C)(C)CCC3(C)C)cc1-c1ccc(C(=O)O)cc1
176 °C	COCOc1c(-c2ccc(C(=O)O)cc2)cccc1-c1ccc2c(c1)C(C)(C)CCC2(C)C
205 °C	COc1c(-c2ccc(C(=O)O)cc2)cccc1-c1ccc2c(c1)C(C)(C)CCC2(C)C
165 °C	COCOCc1cc(-c2ccc(C(=O)O)cc2)cc(-c2ccc3c(c2)C(C)(C)CCC3(C)C)c1
213 °C	CC1(C)CCC(C)(C)c2cc(-c3cc(CO)cc(-c4ccc(C(=O)O)cc4)c3)ccc21
261 °C	CC1(C)CCSc2cc(-c3cc(-c4ccc(C(=O)O)cc4)ccc3-c3ccccc3)ccc21
273 °C	CC1(C)CCC(C)(C)c2cc(-c3cc(-c4ccc(C(=O)O)cc4)ccc3-c3ccccc3)c(O)cc21
343 °C	CC1(C)CCC(C)(C)c2cc(-c3cc(-c4ccc(C(=O)O)cc4)ccc3C(=O)O)ccc21
258 °C	CC1(C)CCC(C)(C)c2cc(-c3cc(-c4ccc(C(=O)O)cc4)ccc3OCC(O)CO)ccc21 (racemic) [Example 10, 4′-(2,3-Dihydroxypropoxy)-3′-(5,5,8,8-tetramethyl-5,6,7,8-tetrahydro-2-naphthyl)biphenyl-4-carboxylic acid]
200 to 201 °C	CC1(C)CCC(C)(C)c2cc(-c3cc(-c4ccc(C(=O)O)cc4)ccc3OCCCCCCO)ccc21 [Example 3, 4-[4-(6-Hydroxyhexyloxy)-3-(5,6,7,8-tetrahydro-5,5,8,8-tetramethyl-2-naphthyl)phenyl]benzoic acid]
168 to 172 °C	CC1(C)CCC(C)(C)c2cc(-c3cc(-c4ccc(C(=O)O)cc4)ccc3OCCCCCCCO)ccc21 [Example 4, 4-[4-(7-Hydroxyheptyloxy)-3-(5,6,7,8-tetrahydro-5,5,8,8-tetramethyl-2-naphthyl)phenyl]benzoic acid]
155 to 160 °C	CC1(C)CCC(C)(C)c2cc(-c3cc(-c4ccc(C(=O)O)cc4)ccc3OCCCCCCCCO)ccc21 [Example 5, 4-[4-(8-Hydroxyoctyloxy)-3-(5,6,7,8-tetrahydro-5,5,8,8-tetramethyl-2-naphthyl)phenyl]benzoic acid]
147 to 150 °C	CC1(C)CCC(C)(C)c2cc(-c3cc(-c4ccc(C(=O)O)cc4)ccc3OCCCCCCCCCO)ccc21 [Example 6, 4-[4-(9-Hydroxynonyloxy)-3-(5,6,7,8-tetrahydro-5,5,8,8-tetramethyl-2-naphthyl)phenyl]benzoic acid]
241 to 244 °C	CC1(C)CCC(C)(C)c2cc(-c3cc(-c4ccc(C(=O)O)cc4)ccc3OCc3ccccc3)ccc21 [Example 9, 4-[4-Benzyloxy-3-(5,6,7,8-tetrahydro-5,5,8,8-tetramethyl-2-naphthyl)phenyl]benzoic acid]
270 to 272 °C	CC1(C)CCC(C)(C)c2cc(-c3cc(-c4ccc(C(=O)O)cc4)ccc3OCCN3CCOCC3)ccc21 [Example 12, 4′-(2-Morpholin-4-ylethoxy)-3′-(5,5,8,8-tetramethyl-5,6,7,8-tetrahydro-2-naphthyl)biphenyl-4-carboxylic acid]
287 to 288 °C	CC1(C)CCC(C)(C)c2cc(-c3cc(-c4ccc(C(=O)O)cc4)ccc3-c3ccccc3)ccc21 [Example 14, 2′-(5,5,8,8-Tetramethyl-5,6,7,8-tetrahydro-2-naphthyl)-[1,1′;4′,1″]terphenyl-4″-carboxylic acid]

melting point	Structure (SMILES)
212 °C	COCOc1cccc(-c2ccc(-c3ccc(C(=O)O)cc3)cc2-c2ccc3c(c2)C(C)(C)CCC3(C)C)c1 [Example 18, 3-Methoxymethoxy-2′-(5,5,8,8-tetramethyl-5,6,7,8-tetrahydro-2-naphthyl)-[1,1′;4′,1″]terphenyl-4″-carboxylic acid]
258 to 259 °C	COc1cccc(-c2ccc(-c3ccc(C(=O)O)cc3)cc2-c2ccc3c(c2)C(C)(C)CCC3(C)C)c1 [Example 20, 3-Methoxy-2′-(5,5,8,8-tetramethyl-5,6,7,8-tetrahydro-2-naphthyl)-[1,1′;4′,1″]terphenyl-4″-carboxylic acid]
218 to 221 °C	COCOc1ccccc1-c1ccc(-c2ccc(C(=O)O)cc2)cc1-c1ccc2c(c1)C(C)(C)CCC2(C)C [Example 21, 2-Methoxymethoxy-2′-(5,5,8,8-tetramethyl-5,6,7,8-tetrahydro-2-naphthyl)-[1,1′;4′,1″]terphenyl-4″-carboxylic acid]
265 to 269 °C	CC1(C)CCC(C)(C)c2cc(-c3cc(-c4ccc(C(=O)O)cc4)ccc3-c3ccccc3O)ccc21 [Example 22, 2-hydroxy-2′-(5,5,8,8-tetramethyl-5,6,7,8-tetrahydro-2-naphthyl)-[1,1′;4′,1″]terphenyl-4″-carboxylic acid]
239 to 243 °C	COc1ccccc1-c1ccc(-c2ccc(C(=O)O)cc2)cc1-c1ccc2c(c1)C(C)(C)CCC2(C)C [Example 23, 2-Methoxy-2′-(5,5,8,8-tetramethyl-5,6,7,8-tetrahydro-2-naphthyl)-[1,1′;4′,1″]terphenyl-4″-carboxylic acid]
258 to 262 °C	CC1(C)CCC(C)(C)c2cc(-c3ccc(-c4ccccc4)c(-c4ccc(C(=O)O)cc4)c3)ccc21 [Example 28, 4′-(5,5,8,8-Tetramethyl-5,6,7,8-tetrahydro-2-naphthyl)-[1,1′;2′,1″]terphenyl-4″-carboxylic acid]
217 °C	Cc1cc2c(cc1-c1cc(-c3ccc(C(=O)O)cc3)ccc1-c1ccccc1)C(C)(C)CCC2(C)C [Example 36, 2′-(3,5,5,8,8-Pentamethyl-5,6,7,8-tetrahydro-2-naphthyl)-[1,1′;4′,1″]terphenyl-4″-carboxylic acid]
234 °C	CCCOc1cc2c(cc1-c1cc(-c3ccc(C(=O)O)cc3)ccc1-c1ccccc1)C(C)(C)CCC2(C)C [Example 40, 2′-(3-Propyloxy-5,5,8,8-tetramethyl-5,6,7,8-tetrahydro-2-naphthyl)-[1,1′;4′,1″]terphenyl-4″-carboxylic acid]
282 to 284 °C	CC1(C)CCC(C)(C)c2cc(-c3cc(-c4ccc(C(=O)O)cc4O)ccc3-c3ccccc3)ccc21 [Example 42, 2″-Hydroxy-2′-(5,5,8,8-tetramethyl-5,6,7,8-tetrahydro-2-naphthyl)-[1,1′;4′,1″]terphenyl-4″-carboxylic acid]
204 to 206 °C	COCOc1cc(C(=O)O)ccc1-c1ccc(-c2ccccc2)c(-c2ccc3c(c2)C(C)(C)CCC3(C)C)c1 [Example 43, 2″-Methoxymethoxy-2′-(5,5,8,8-tetramethyl-5,6,7,8-tetrahydro-2-naphthyl)-[1,1′;4′,1″]terphenyl-4″-carboxylic acid]
266 to 268 °C	CC1(C)CCC(C)(C)c2cc(-c3cc(-c4ccc(C(=O)O)c(O)c4)ccc3-c3ccccc3)ccc21 [Example 46, 3″-Hydroxy-2′-(5,5,8,8-tetramethyl-5,6,7,8-tetrahydro-2-naphthyl)-[1,1′;4′,1″]terphenyl-4″-carboxylic acid]
222 to 224 °C	CC1(C)CCC(C)(C)c2cc(-c3cc(-c4ccc(C(=O)O)nc4)ccc3-c3ccccc3)ccc21 [Example 48, 5-[2-(5,5,8,8-Tetramethyl-5,6,7,8-tetrahydro-2-naphthyl)biphenyl-4-yl]-2-pyridinecarboxylic acid]
279 to 281 °C	CC1(C)CCC(C)(C)c2cc(C3C=C(c4ccccc4)C=CC3(OCC(=O)O)C(=O)O)ccc21 (stereo not shown) [Example 54, 4′-Carboxymethoxy-3′-(5,5,8,8-tetramethyl-5,6,7,8-tetrahydro-2-naphthyl)biphenyl-4′-carboxylic acid]
177 °C	CCOC(=O)CCCCCOc1ccc(-c2ccc(C(=O)O)cc2)cc1-c1ccc2c(c1)C(C)(C)CCC2(C)C [Example 55, 4′-(5-Ethoxycarbonylpentyloxy)-3′-(5,5,8,8-tetramethyl-5,6,7,8-tetrahydro-2-naphthyl)biphenyl-4-carboxylic acid]
245 °C	CC1(C)CCC(C)(C)c2cc(-c3cc(-c4ccc(C(=O)O)cc4)ccc3OCCCCCC(=O)O)ccc21 [Example 56, 4′-(5-Carboxypentyloxy)-3′-(5,5,8,8-tetramethyl-5,6,7,8-tetrahydro-2-naphthyl)biphenyl-4-carboxylic acid]
